According to paper PMC10448176, “Arsenite oxidase in complex with antimonite and arsenite oxyanions: Insights into the catalytic mechanism” (The Journal of Biological Chemistry, 2023):
Where two headings read alike, the source gives them in different places.

Biological target: Af Aio (arsenite oxidase, AioA/AioB) (Alcaligenes faecalis, UniProt Q7SIF4)
Conditions: Mo active site of AioA, covalent

## O[As](O)O [As, arsenite]
10 mM sodium arsenite soak of ferricyanide-oxidized crystals, mu-oxo bridged to Mo, two structures: As_d (8CH9, two oxo bridges) and As_c (8CFF, one bridge, possible)
  X-ray crystallography, crystal soak: the As ion is bound to Mo via one μ-oxo bridge (Mo-Ox-As)

## [OH][Sb]([OH])[OH] [Sb, antimonite]
10 mM potassium antimonyl tartrate soak of ferricyanide-oxidized crystals, one oxo bridge to Mo, Sb with four further oxo/hydroxo groups, turnover intermediate
  X-ray crystallography, crystal soak: the Sb atom is sitting vertically to Mo and coordinated to the oxo ligand
